Experimental data reported in patent US10752616B2, “Bicycloheteroaryl-heteroaryl-benzoic acid compounds as retinoic acid receptor beta (RARβ) agonists” (King's College London, priority 2014, dated 2020).

How the values were obtained:
Assay type in all cases: cell-based
RARβ = RARβ (Mus musculus (Mouse), UniProt P22605); test: Transactivation assay for RARβ (gal4-RAR fusion, pFR-luc reporter, COS-7 cells), Table 2; conditions: COS-7 reporter, mean of three or more determinations, species not stated (method: mouse or human)
Sequence of RARβ (P22605 210-444): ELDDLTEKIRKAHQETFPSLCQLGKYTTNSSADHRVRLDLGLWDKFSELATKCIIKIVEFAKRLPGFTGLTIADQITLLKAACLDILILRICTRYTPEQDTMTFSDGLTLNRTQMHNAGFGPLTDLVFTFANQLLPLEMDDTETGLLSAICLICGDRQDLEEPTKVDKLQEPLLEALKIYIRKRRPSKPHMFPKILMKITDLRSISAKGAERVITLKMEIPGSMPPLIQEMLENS
Method: (§1) Transcriptional transactivation assays were performed with gal4 fusion receptor constructs, created using each of the RAR ligand binding domains of either mouse or human, co-transfected with the pFR-luc (Stratagene) reporter construct in COS-7 cells.
(§2) Briefly, on day 1, 96 well plates were seeded with 8000 cells per well then left to recover overnight. On day 2, the cells were co-transfected with 100 ng of reporter plasmid and 10 ng of the appropriate receptor plasmid per well using lipofectamine (Invitrogen). On day 3, the lipofectamine containing media was replaced by a DMEM without phenol red, followed by the addition of test compound dissolved in 1 μL of DMSO to each well's 100 μL total volume. Finally, on day 4, the cells were lysed and their luciferase substrate was provided by the BrightGlo™ reagent (Promega), the plates were then read on the MicroBeta TriLux™ (Perkin Elmer).
(§3) Data for test compounds are quoted as EC50 values. Where replicate data has been generated, the data are quoted as the mean EC50 from the separate experiments.
(§4) EC50's values are reported as mean values of three or more determinations.

RARα = RARα (Mus musculus (Mouse), UniProt P11416); test: Transactivation assay for RARα (gal4-RAR fusion, pFR-luc reporter, COS-7 cells), Table 2; conditions: for EC50: Table 2, COS-7 reporter, mean of three or more determinations, inactive = no agonist action at highest concentration tested; for RARα/RARβ ratio: fold-selectivity for RARβ over RARα, >1 = selective for RARβ
Sequence of RARα (P11416 183-417): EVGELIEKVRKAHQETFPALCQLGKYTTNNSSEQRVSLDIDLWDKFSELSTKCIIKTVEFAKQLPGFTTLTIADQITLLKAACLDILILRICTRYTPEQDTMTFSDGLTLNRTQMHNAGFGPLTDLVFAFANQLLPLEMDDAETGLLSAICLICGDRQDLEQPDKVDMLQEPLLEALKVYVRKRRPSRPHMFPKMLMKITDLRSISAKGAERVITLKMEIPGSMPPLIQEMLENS
Method: as §1, §2, §3, §4

RARγ = RARγ (Mus musculus (Mouse), UniProt P18911); test: Transactivation assay for RARγ (gal4-RAR fusion, pFR-luc reporter, COS-7 cells), Table 2; conditions: for EC50: Table 2, COS-7 reporter, mean of three or more determinations, inactive = no agonist action at highest concentration tested; for RARγ/RARβ ratio: fold-selectivity for RARβ over RARγ, >1 = selective for RARβ
Sequence of RARγ (P18911 185-419): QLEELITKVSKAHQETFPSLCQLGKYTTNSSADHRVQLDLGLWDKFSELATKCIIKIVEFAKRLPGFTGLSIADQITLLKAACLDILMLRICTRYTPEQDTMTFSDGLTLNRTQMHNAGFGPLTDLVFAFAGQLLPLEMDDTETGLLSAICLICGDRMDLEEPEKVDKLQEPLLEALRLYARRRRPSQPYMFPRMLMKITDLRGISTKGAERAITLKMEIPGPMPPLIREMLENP
Method: as §1, §2, §3, §4

SMILES	EC50 (RARβ) [nM]	EC50 (RARα) [nM]	RARα/RARβ ratio (RARα)	EC50 (RARγ) [nM]	RARγ/RARβ ratio (RARγ)
Cc1ccc(C)c2oc(-c3noc(-c4ccc(C(=O)O)cc4Cl)n3)cc12 [BHBA-031, 3-Chloro-4-(3-(4,7-dimethylbenzofuran-2-yl)-1,2,4-oxadiazol-5-yl)benzoic acid]	17	150	8.8	42	2.5
Cc1cc(-c2nc(-c3cc4c(C)ccc(C)c4o3)no2)ccc1C(=O)O [BHBA-032, 4-(3-(4,7-Dimethylbenzofuran-2-yl)-1,2,4-oxadiazol-5-yl)-2-methylbenzoic acid]	8.1	150	18.5	22	2.7
Cc1ccc(C)c2oc(-c3noc(-c4ccc(C(=O)O)c(F)c4)n3)cc12 [BHBA-033, 4-(3-(4,7-Dimethylbenzofuran-2-yl)-1,2,4-oxadiazol-5-yl)-2-fluorobenzoic acid]	13	45	3.5	23	1.8
Cc1ccc(C)c2oc(-c3nnc(-c4ccc(C(=O)O)cc4)o3)cc12 [BHBA-034, 4-(5-(4,7-Dimethylbenzofuran-2-yl)-1,3,4-oxadiazol-2-yl)benzoic acid]	20	92	4.6	58	2.9
Cc1cc(C(=O)O)ccc1-c1nnc(-c2cc3c(C)ccc(C)c3o2)o1 [BHBA-035, 4-(5-(4,7-Dimethylbenzofuran-2-yl)-1,3,4-oxadiazol-2-yl)-3-methylbenzoic acid]	67	91	1.3	83	1.2
Cc1ccc(C)c2oc(-c3nnc(-c4ccc(C(=O)O)cc4Cl)o3)cc12 [BHBA-036, 3-Chloro-4-(5-(4,7-dimethylbenzofuran-2-yl)-1,3,4-oxadiazol-2-yl)benzoic acid]	28	225	8	58	2.1
Cc1ccc(C)c2oc(-c3nnc(-c4ccc(C(=O)O)c(F)c4)o3)cc12 [BHBA-037, 4-(5-(4,7-Dimethylbenzofuran-2-yl)-1,3,4-oxadiazol-2-yl)-2-fluorobenzoic acid]	45	91	2	60	1.3
Cc1ccc(C)c2oc(-c3nc(-c4ccc(C(=O)O)cc4)ns3)cc12 [BHBA-038, 4-(5-(4,7-Dimethylbenzofuran-2-yl)-1,2,4-thiadiazol-3-yl)benzoic acid]	5.1	19	3.7	6.1	1.2
Cc1ccc(C)c2oc(-c3nc(-c4ccc(C(=O)O)cc4Cl)ns3)cc12 [BHBA-039, 3-Chloro-4-(5-(4,7-dimethylbenzofuran-2-yl)-1,2,4-thiadiazol-3-yl)benzoic acid]	3.6	65	–	13	–
Cc1cc(-c2nsc(-c3cc4c(C)ccc(C)c4o3)n2)ccc1C(=O)O [BHBA-040, 4-(5-(4,7-Dimethylbenzofuran-2-yl)-1,2,4-thiadiazol-3-yl)-2-methylbenzoic acid]	11	72	–	130	–
Cc1ccc(C)c2oc(-c3nc(-c4ccc(C(=O)O)c(F)c4)ns3)cc12 [BHBA-041, 4-(5-(4,7-Dimethylbenzofuran-2-yl)-1,2,4-thiadiazol-3-yl)-2-fluorobenzoic acid]	4.3	20	4.6	4.7	1.0
Cc1ccc(C)c2oc(-c3nsc(-c4ccc(C(=O)O)cc4)n3)cc12 [BHBA-042, 4-(3-(4,7-Dimethylbenzofuran-2-yl)-1,2,4-thiadiazol-5-yl)benzoic acid]	3.1	9.4	3	2.3	0.74
